Assay results as given in US10472341B2, “Bicyclic tetrahydrothiazepine derivatives useful for the treatment of neoplastic and/or infectious diseases” (APEIRON BIOLOGICS AG, priority 2015, dated 2019).
Counter-ions that a name gives are not always drawn.

Assays:
[1] = system: Splenocytes of BL6 mice; experiment: Murine splenocytes stimulated with anti-CD3 and anti-CD28 antibodies: IL-2, CD25 on CD4 and CD8 T cells; assay type: cell-based, mouse; conditions: for production of cytokine: murine splenocytes stimulated with anti-CD3 and anti-CD28; for enhancement of cytokine production: unstimulated murine splenocytes
[2] = system: K562 leukemia cells; experiment: Living tumor cells (K562) in the presence of NK cells; assay type: cell-based, human
Procedure: (§1) Isolated PBMCs, NK cells or CD8 positive cells were plated in Xvivo medium at 1.5*10^5 cells per in 96 well culture plates in the presence of 0.3*10^4 tumor cells where indicated. Cytokine secretion was determined by ELISA, immune cell activation (using Beckman-Coulter Abs CD25-PC5, CD69-PC7), cell viability and numbers by flow cytometry (Beckman-Coulter FC500 or Gallios) using 7-AAD exclusion as criterion for living cells. NK cells were isolated from PBMCs and were incubated with and without compounds, either alone or in co-culture with K562 leukemia cells.

[3] = system: NK cells & K562 leukemia cells; experiment: NK cells alone or in co-culture with K562 leukemia cells: IFN-gamma, TNF-alpha, granzyme, CD25+CD69+; assay type: cell-based, human
Procedure: as §1, with “living cells. One of the physiological functions of NK cells in anti-tumor immunity is the recognition and destruction of tumor cells that have a low expression of MHC-molecules, thus avoiding recognition by CD8 T cells. Downregulation of MHC molecules is often actively mediated by an infecting virus or occurs during development of malignant neoplasms. The […] leukemia cell line expresses only very low amounts of MHC-molecules and thus is often used as a model system to investigate anti-tumor NK cell reactivity. NK cells” for “living cells. NK cells”

N[C@H]1CS(=O)(=O)c2cc(F)c(C(=O)NC3CC3(F)F)cc2N(Cc2ccc(Cl)cc2)C1=O (stereo partly drawn) [Example 1, (3R)-3-amino-5-[(4-chlorophenyl)methyl]-N-(2,2-difluorocyclopropyl)-8-fluoro-1,1,4-trioxo-2,3,4,5-tetrahydro-1λ^6,5-benzothiazepine-7-carboxamide hydrochloride]
CD25+ CD4 T cells ([1]; aCD3/28 stim, 0.3 μM): 7.48 % gated | CD25+ CD8 T cells ([1]; aCD3/28 stim, 0.3 μM): 5.86 % gated | IL-2 production ([1]; aCD3/28 stim, 0.3 μM): 0.29 ng/mL | CD25+ CD4 T cells ([1]; aCD3/28 stim, 1 μM): 7.42 % gated | CD25+ CD8 T cells ([1]; aCD3/28 stim, 1 μM): 7.17 % gated | IL-2 production ([1]; aCD3/28 stim, 1 μM): 0.45 ng/mL | CD25+ CD4 T cells ([1]; aCD3/28 stim, 3 μM): 9.19 % gated | CD25+ CD8 T cells ([1]; aCD3/28 stim, 3 μM): 10.90 % gated | IL-2 production ([1]; aCD3/28 stim, 3 μM): 0.61 ng/mL | CD25+ CD4 T cells ([1]; aCD3/28 stim, 10 μM): 12.15 % gated | CD25+ CD8 T cells ([1]; aCD3/28 stim, 10 μM): 15.76 % gated | IL-2 production ([1]; aCD3/28 stim, 10 μM): 1.46 ng/mL | CD25+ CD4 T cells ([1]; aCD3/28 stim, 30 μM): 12.01 % gated | CD25+ CD8 T cells ([1]; aCD3/28 stim, 30 μM): 16.51 % gated | IL-2 production ([1]; aCD3/28 stim, 30 μM): 1.71 ng/mL | production of cytokine [1]: strongly enhanced production of cytokine | CD25+ CD4 T cells ([1]; unstim, 0.3 μM): 0.50 % gated | CD25+ CD8 T cells ([1]; unstim, 0.3 μM): 0.61 % gated | IL-2 production ([1]; unstim, 0.3 μM): 0.00 ng/mL | CD25+ CD4 T cells ([1]; unstim, 1 μM): 0.50 % gated | CD25+ CD8 T cells ([1]; unstim, 1 μM): 0.65 % gated | IL-2 production ([1]; unstim, 1 μM): 0.00 ng/mL | CD25+ CD4 T cells ([1]; unstim, 3 μM): 0.42 % gated | CD25+ CD8 T cells ([1]; unstim, 3 μM): 0.61 % gated | IL-2 production ([1]; unstim, 3 μM): 0.00 ng/mL | CD25+ CD4 T cells ([1]; unstim, 10 μM): 0.41 % gated | CD25+ CD8 T cells ([1]; unstim, 10 μM): 0.62 % gated | IL-2 production ([1]; unstim, 10 μM): 0.00 ng/mL | CD25+ CD4 T cells ([1]; unstim, 30 μM): 0.38 % gated | CD25+ CD8 T cells ([1]; unstim, 30 μM): 0.56 % gated | IL-2 production ([1]; unstim, 30 μM): 0.00 ng/mL | enhancement of cytokine production [1]: such effect was not detected on unstimulated cells

CCCCNC(=O)c1ccc2c(c1)N(Cc1ccc(OC(F)(F)F)cc1)C(=O)[C@@H](N)CS2(=O)=O.Cl [Example 67, (3R)-3-amino-N-butyl-1,1,4-trioxo-5-{[4-(trifluoromethoxy)phenyl]methyl}-2,3,4,5-tetrahydro-1λ^6,5-benzothiazepine-7-carboxamide hydrochloride]
Living tumor cells ([2]; K562 only, 0.3 μM): 22199.00 | Living tumor cells ([2]; K562 only, 3 μM): 20750.33 | Living tumor cells ([2]; K562 only, 30 μM): 22719.33 | Living tumor cells ([2]; NK cells & K562, 0.01 μM): 709.00 | Living tumor cells ([2]; NK cells & K562, 0.03 μM): 779.67 | Living tumor cells ([2]; NK cells & K562, 0.1 μM): 712.67 | Living tumor cells ([2]; NK cells & K562, 0.3 μM): 676.00 | Living tumor cells ([2]; NK cells & K562, 1 μM): 623.33 | Living tumor cells ([2]; NK cells & K562, 3 μM): 620.33 | Living tumor cells ([2]; NK cells & K562, 10 μM): 611.67 | Living tumor cells ([2]; NK cells & K562, 30 μM): 632.00 | IFN-gamma [ng/ml] Avg ([3]; 0.03 μM, NK cells & K562): 7.47 ng/mL | TNF-alpha [ng/ml] avg ([3]; 0.03 μM, NK cells & K562): 0.21 ng/mL | IFN-gamma [ng/ml] Avg ([3]; 0.03 μM, NK cells only): below | TNF-alpha [ng/ml] avg ([3]; 0.03 μM, NK cells only): below | IFN-gamma [ng/ml] Avg ([3]; 0.1 μM, NK cells & K562): 10.14 ng/mL | TNF-alpha [ng/ml] avg ([3]; 0.1 μM, NK cells & K562): 0.26 ng/mL | IFN-gamma [ng/ml] Avg ([3]; 0.1 μM, NK cells only): below | TNF-alpha [ng/ml] avg ([3]; 0.1 μM, NK cells only): below | IFN-gamma [ng/ml] Avg ([3]; 0.3 μM, NK cells & K562): 11.24 ng/mL | TNF-alpha [ng/ml] avg ([3]; 0.3 μM, NK cells & K562): 0.33 ng/mL | IFN-gamma [ng/ml] Avg ([3]; 0.3 μM, NK cells only): below | TNF-alpha [ng/ml] avg ([3]; 0.3 μM, NK cells only): below | IFN-gamma [ng/ml] Avg ([3]; 1 μM, NK cells & K562): 16.40 ng/mL | TNF-alpha [ng/ml] avg ([3]; 1 μM, NK cells & K562): 0.57 ng/mL | IFN-gamma [ng/ml] Avg ([3]; 1 μM, NK cells only): below | TNF-alpha [ng/ml] avg ([3]; 1 μM, NK cells only): below | IFN-gamma [ng/ml] Avg ([3]; 3 μM, NK cells & K562): 17.80 ng/mL | TNF-alpha [ng/ml] avg ([3]; 3 μM, NK cells & K562): 0.58 ng/mL | IFN-gamma [ng/ml] Avg ([3]; 3 μM, NK cells only): below | TNF-alpha [ng/ml] avg ([3]; 3 μM, NK cells only): below | IFN-gamma [ng/ml] Avg ([3]; 10 μM, NK cells & K562): 22.65 ng/mL | TNF-alpha [ng/ml] avg ([3]; 10 μM, NK cells & K562): 0.80 ng/mL | IFN-gamma [ng/ml] Avg ([3]; 10 μM, NK cells only): below | TNF-alpha [ng/ml] avg ([3]; 10 μM, NK cells only): below | IFN-gamma [ng/ml] Avg ([3]; 30 μM, NK cells & K562): 19.98 ng/mL | TNF-alpha [ng/ml] avg ([3]; 30 μM, NK cells & K562): 0.79 ng/mL | IFN-gamma [ng/ml] Avg ([3]; 30 μM, NK cells only): below | TNF-alpha [ng/ml] avg ([3]; 30 μM, NK cells only): below | CD25+CD69+ ([3]; NK cells & K562, 0.03 μM): 6.90 % gated | Granzyme ([3]; NK cells & K562, 0.03 μM): 0.65 ng/mL | CD25+CD69+ ([3]; NK cells & K562, 0.1 μM): 8.44 % gated | Granzyme ([3]; NK cells & K562, 0.1 μM): 0.93 ng/mL | CD25+CD69+ ([3]; NK cells & K562, 0.3 μM): 9.68 % gated | Granzyme ([3]; NK cells & K562, 0.3 μM): 1.01 ng/mL | CD25+CD69+ ([3]; NK cells & K562, 1 μM): 18.80 % gated | Granzyme ([3]; NK cells & K562, 1 μM): 1.47 ng/mL | CD25+CD69+ ([3]; NK cells & K562, 3 μM): 21.66 % gated | Granzyme ([3]; NK cells & K562, 3 μM): 1.62 ng/mL | CD25+CD69+ ([3]; NK cells & K562, 10 μM): 31.98 % gated | Granzyme ([3]; NK cells & K562, 10 μM): 2.52 ng/mL | CD25+CD69+ ([3]; NK cells & K562, 30 μM): 35.89 % gated | Granzyme ([3]; NK cells & K562, 30 μM): 2.43 ng/mL | production of IFN-gamma and TNF-alpha ([3]; NK cells in co-culture with K562 leukemia cells): enhanced production of both cytokines specifically upon tumor cell contact | enhancement of IFN-gamma and TNF-alpha production ([3]; NK cells in the absence of tumor cells): such effect was not detected in the absence of tumor cells | CD25+CD69+ ([3]; NK cells only, 0.03 μM): 0.05 % gated | Granzyme ([3]; NK cells only, 0.03 μM): 0.08 ng/mL | CD25+CD69+ ([3]; NK cells only, 0.1 μM): 0.06 % gated | Granzyme ([3]; NK cells only, 0.1 μM): 0.09 ng/mL | CD25+CD69+ ([3]; NK cells only, 0.3 μM): 0.15 % gated | Granzyme ([3]; NK cells only, 0.3 μM): 0.08 ng/mL | CD25+CD69+ ([3]; NK cells only, 1 μM): 0.39 % gated | Granzyme ([3]; NK cells only, 1 μM): 0.06 ng/mL | CD25+CD69+ ([3]; NK cells only, 3 μM): 0.47 % gated | Granzyme ([3]; NK cells only, 3 μM): 0.12 ng/mL | CD25+CD69+ ([3]; NK cells only, 10 μM): 0.95 % gated | Granzyme ([3]; NK cells only, 10 μM): 0.15 ng/mL | CD25+CD69+ ([3]; NK cells only, 30 μM): 1.24 % gated | Granzyme ([3]; NK cells only, 30 μM): 0.25 ng/mL

Cl.N[C@H]1CS(=O)(=O)c2cc(F)c(C(=O)NCCCC(F)(F)F)cc2N(Cc2ccc(Cl)cc2)C1=O [Example 70, (3R)-3-amino-5-[(4-chlorophenyl)methyl]-8-fluoro-1,1,4-trioxo-N-(4,4,4-trifluoro-butyl)-2,3,4,5-tetrahydro-1λ^6,5-benzothiazepine-7-carboxamide hydrochloride]
CD25+ CD4 T cells ([1]; aCD3/28 stim, 0.3 μM): 8.10 % gated | CD25+ CD8 T cells ([1]; aCD3/28 stim, 0.3 μM): 10.10 % gated | IL-2 production ([1]; aCD3/28 stim, 0.3 μM): 0.77 ng/mL | CD25+ CD4 T cells ([1]; aCD3/28 stim, 1 μM): 9.28 % gated | CD25+ CD8 T cells ([1]; aCD3/28 stim, 1 μM): 10.41 % gated | IL-2 production ([1]; aCD3/28 stim, 1 μM): 0.91 ng/mL | CD25+ CD4 T cells ([1]; aCD3/28 stim, 3 μM): 11.88 % gated | CD25+ CD8 T cells ([1]; aCD3/28 stim, 3 μM): 14.58 % gated | IL-2 production ([1]; aCD3/28 stim, 3 μM): 1.54 ng/mL | CD25+ CD4 T cells ([1]; aCD3/28 stim, 10 μM): 13.41 % gated | CD25+ CD8 T cells ([1]; aCD3/28 stim, 10 μM): 16.68 % gated | IL-2 production ([1]; aCD3/28 stim, 10 μM): 1.90 ng/mL | CD25+ CD4 T cells ([1]; aCD3/28 stim, 30 μM): 11.94 % gated | CD25+ CD8 T cells ([1]; aCD3/28 stim, 30 μM): 17.50 % gated | IL-2 production ([1]; aCD3/28 stim, 30 μM): 1.71 ng/mL | production of cytokine [1]: strongly enhanced production of cytokine | CD25+ CD4 T cells ([1]; unstim, 0.3 μM): 0.55 % gated | CD25+ CD8 T cells ([1]; unstim, 0.3 μM): 0.61 % gated | IL-2 production ([1]; unstim, 0.3 μM): 0.00 ng/mL | CD25+ CD4 T cells ([1]; unstim, 1 μM): 0.45 % gated | CD25+ CD8 T cells ([1]; unstim, 1 μM): 0.65 % gated | IL-2 production ([1]; unstim, 1 μM): 0.00 ng/mL | CD25+ CD4 T cells ([1]; unstim, 3 μM): 0.48 % gated | CD25+ CD8 T cells ([1]; unstim, 3 μM): 0.60 % gated | IL-2 production ([1]; unstim, 3 μM): 0.00 ng/mL | CD25+ CD4 T cells ([1]; unstim, 10 μM): 0.45 % gated | CD25+ CD8 T cells ([1]; unstim, 10 μM): 0.60 % gated | IL-2 production ([1]; unstim, 10 μM): 0.00 ng/mL | CD25+ CD4 T cells ([1]; unstim, 30 μM): 0.47 % gated | CD25+ CD8 T cells ([1]; unstim, 30 μM): 0.64 % gated | IL-2 production ([1]; unstim, 30 μM): 0.00 ng/mL | enhancement of cytokine production [1]: such effect was not detected on unstimulated cells
